This note sets out measurements from EP0891991A2, “Tris(pentafluorophenyl)borate complexes and catalysts derived therefrom” (MINNESOTA MINING AND MANUFACTURING COMPANY, priority 1995, dated 1996).

This series can be described thus: Stability of tris(pentafluorophenyl)borane hydrates. The series is classed as physicochemical. As to conditions: in solution or in the solid state. The source says: Of the class of compounds of the type (C6F5)3B-(YXH)q, when Y is hydrogen, X is oxygen, and q is 1 or 3, the complex with water is a special case. Exposure of anhydrous (C6F5)3B to water vapor, produces (C6F5)3B·3H2O, a white, stable solid. No intermediate hydrate was detected by infrared spectroscopic analysis. […] Formation of a trihydrate was unexpected because all other previously known (C6F5)3B complexes with Lewis bases have a 1:1 stoichiometry. Vacuum sublimation of the trihydrate produced a mixture of the monohydrate and (C6F5)3B. The pure monohydrate, (C6F5)3B·H2O, however may be obtained by combining in organic solvents, such as toluene or chloroform, one equivalent of (C6F5)3B·3H2O with two equivalents of (C6F5)3B followed by evaporation of the solvent. This conproportionation reaction is a convenient way of synthesizing the monohydrate as needed. […] The monohydrate may also be prepared by combining one mole each of water and (C6F5)3B.

The structures appear in SMILES notation.

In the case of `Fc1c(F)c(F)c(B(c2c(F)c(F)c(F)c(F)c2F)c2c(F)c(F)c(F)c(F)c2F)c(F)c1F.O` [Example 2], the stability result was “unstable and slowly decomposes”.
